From ChEMBL document CHEMBL3885881, “DrugMatrix”

Species on record: Rattus norvegicus
Format: toxicity, organism-based, Sprague-Dawley
Conditions: in vivo, po, route oral GAVAGE, […]; for ABSOLUTE EOSINOPHIL / ABSOLUTE LYMPHOCYTE / ABSOLUTE MONOCYTE / ABSOLUTE SEGMENTED NEUTROPHIL / BASOPHIL / EOSINOPHIL / ERYTHROCYTE COUNT / HEMATOCRIT / HEMOGLOBIN / LEUKOCYTE COUNT / LYMPHOCYTE / MEAN CORPUSCULAR HEMOGLOBIN / MEAN CORPUSCULAR HEMOGLOBIN CONCENTRATION / MEAN CORPUSCULAR VOLUME / MONOCYTE / NEUTROPHIL / NUCLEATED RED BLOOD CELLS / PLATELET COUNT: tissue Blood; for ALANINE AMINOTRANSFERASE / ALBUMIN / ALKALINE PHOSPHATASE / ASPARTATE AMINOTRANSFERASE / BLOOD UREA NITROGEN / CARBON DIOXIDE / CHLORIDE / CHOLESTEROL / CREATINE PHOSPHOKINASE / CREATININE / GLUCOSE / LACTATE DEHYDROGENASE / LIPASE / PHOSPHORUS / POTASSIUM / SODIUM / TOTAL BILIRUBIN / TOTAL PROTEIN / URIC ACID: tissue Plasma
[1] = 0 mg/kg, 6 h, vehicle control, dose level Control, time 0.25 day
[2] = 0 mg/kg, 24 h, vehicle control, dose level Control, time 1 day
[3] = 130 mg/kg, 6 h, dose level Low, time 0.25 day

Description: DrugMatrix - Regimen: Single

CCOC(=O)C(C)(C)Oc1ccc(Cl)cc1 [CLOFIBRATE]
ABSOLUTE EOSINOPHIL [1]: 0 CELLS/uL
ABSOLUTE LYMPHOCYTE [1]: 8631 CELLS/uL
ABSOLUTE MONOCYTE [1]: 171.17 CELLS/uL
ABSOLUTE SEGMENTED NEUTROPHIL [1]: 1214.5 CELLS/uL
BASOPHIL [1]: 0%
EOSINOPHIL [1]: 0%
ERYTHROCYTE COUNT [1]: 5.42 x10E6/uL
HEMATOCRIT [1]: 34.7%
HEMOGLOBIN [1]: 13.67 G/DL
LEUKOCYTE COUNT [1]: 10.02 x10E3/uL
LYMPHOCYTE [1]: 86.17%
MEAN CORPUSCULAR HEMOGLOBIN [1]: 25.27 pg
MEAN CORPUSCULAR HEMOGLOBIN CONCENTRATION [1]: 39.42 G/DL
MEAN CORPUSCULAR VOLUME [1]: 64.12 fL
MONOCYTE [1]: 1.67%
NEUTROPHIL [1]: 12.17%
NUCLEATED RED BLOOD CELLS [1]: 0 /100WBC
PLATELET COUNT [1]: 1050 x10E3/uL
ALANINE AMINOTRANSFERASE [1]: 61 u/L
ALBUMIN [1]: 4.67 G/DL
ALKALINE PHOSPHATASE [1]: 312.5 u/L
ASPARTATE AMINOTRANSFERASE [1]: 117.5 u/L
BLOOD UREA NITROGEN [1]: 8.67 mg/dL
CARBON DIOXIDE [1]: 26.33 mmol/L
CHLORIDE [1]: 100.5 MEQ/L
CHOLESTEROL [1]: 72 mg/dL
CREATINE PHOSPHOKINASE [1]: 283.33 u/L
CREATININE [1]: 0.28 mg/dL
GLUCOSE [1]: 172 mg/dL
LACTATE DEHYDROGENASE [1]: 95.33 u/L
LIPASE [1]: 10.17 u/L
PHOSPHORUS [1]: 9.9 mg/dL
POTASSIUM [1]: 5.75 MEQ/L
SODIUM [1]: 142.4 MEQ/L
TOTAL BILIRUBIN [1]: 0.3 mg/dL
TOTAL PROTEIN [1]: 5.43 G/DL
URIC ACID [1]: 0.73 mg/dL
ABSOLUTE EOSINOPHIL [2]: 90.83 CELLS/uL
ABSOLUTE LYMPHOCYTE [2]: 14725.17 CELLS/uL
ABSOLUTE MONOCYTE [2]: 220 CELLS/uL
ABSOLUTE SEGMENTED NEUTROPHIL [2]: 1080.67 CELLS/uL
BASOPHIL [2]: 0%
EOSINOPHIL [2]: 0.67%
ERYTHROCYTE COUNT [2]: 5.3 x10E6/uL
HEMATOCRIT [2]: 33.4%
HEMOGLOBIN [2]: 13.4 G/DL
LEUKOCYTE COUNT [2]: 16.12 x10E3/uL
LYMPHOCYTE [2]: 91.17%
MEAN CORPUSCULAR HEMOGLOBIN [2]: 25.3 pg
MEAN CORPUSCULAR HEMOGLOBIN CONCENTRATION [2]: 40.12 G/DL
MEAN CORPUSCULAR VOLUME [2]: 63.05 fL
MONOCYTE [2]: 1.5%
NEUTROPHIL [2]: 6.67%
NUCLEATED RED BLOOD CELLS [2]: 0 /100WBC
PLATELET COUNT [2]: 1062 x10E3/uL
ALANINE AMINOTRANSFERASE [2]: 69 u/L
ALBUMIN [2]: 4.33 G/DL
ALKALINE PHOSPHATASE [2]: 269 u/L
ASPARTATE AMINOTRANSFERASE [2]: 83.67 u/L
BLOOD UREA NITROGEN [2]: 14 mg/dL
CARBON DIOXIDE [2]: 29 mmol/L
CHLORIDE [2]: 100.83 MEQ/L
CHOLESTEROL [2]: 66.67 mg/dL
CREATINE PHOSPHOKINASE [2]: 355 u/L
CREATININE [2]: 0.18 mg/dL
GLUCOSE [2]: 161.33 mg/dL
LACTATE DEHYDROGENASE [2]: 123.33 u/L
LIPASE [2]: 10.67 u/L
PHOSPHORUS [2]: 8.83 mg/dL
POTASSIUM [2]: 6.06 MEQ/L
SODIUM [2]: 142.45 MEQ/L
TOTAL BILIRUBIN [2]: 0.2 mg/dL
TOTAL PROTEIN [2]: 5.72 G/DL
URIC ACID [2]: 1.27 mg/dL
ABSOLUTE EOSINOPHIL [3]: 53.33 CELLS/uL
ABSOLUTE LYMPHOCYTE [3]: 12668.17 CELLS/uL
ABSOLUTE MONOCYTE [3]: 233.17 CELLS/uL
ABSOLUTE SEGMENTED NEUTROPHIL [3]: 1278.67 CELLS/uL
BASOPHIL [3]: 0%
EOSINOPHIL [3]: 0.33%
ERYTHROCYTE COUNT [3]: 5.56 x10E6/uL
HEMATOCRIT [3]: 34.18%
HEMOGLOBIN [3]: 13.43 G/DL
LEUKOCYTE COUNT [3]: 14.23 x10E3/uL
LYMPHOCYTE [3]: 88.83%
MEAN CORPUSCULAR HEMOGLOBIN [3]: 24.17 pg
MEAN CORPUSCULAR HEMOGLOBIN CONCENTRATION [3]: 39.33 G/DL
MEAN CORPUSCULAR VOLUME [3]: 61.53 fL
MONOCYTE [3]: 1.67%
NEUTROPHIL [3]: 9.17%
NUCLEATED RED BLOOD CELLS [3]: 0 /100WBC
PLATELET COUNT [3]: 1136.67 x10E3/uL
ALANINE AMINOTRANSFERASE [3]: 40.17 u/L
ALBUMIN [3]: 4.38 G/DL
ALKALINE PHOSPHATASE [3]: 384.83 u/L
ASPARTATE AMINOTRANSFERASE [3]: 76.67 u/L
BLOOD UREA NITROGEN [3]: 7.4 mg/dL
CARBON DIOXIDE [3]: 25 mmol/L
CHLORIDE [3]: 101.4 MEQ/L
CHOLESTEROL [3]: 63.33 mg/dL
CREATINE PHOSPHOKINASE [3]: 249.67 u/L
CREATININE [3]: 0.36 mg/dL
GLUCOSE [3]: 139.83 mg/dL
LACTATE DEHYDROGENASE [3]: 146.17 u/L
LIPASE [3]: 10.2 u/L
PHOSPHORUS [3]: 10.1 mg/dL
POTASSIUM [3]: 5.97 MEQ/L
SODIUM [3]: 142.94 MEQ/L
TOTAL BILIRUBIN [3]: 0.38 mg/dL
TOTAL PROTEIN [3]: 5.73 G/DL
URIC ACID [3]: 0.96 mg/dL
